Test results taken from paper PMC3495175 (Bioorganic & medicinal chemistry, 2012).

Tests used:
[1] = target: MtMetAP1a (Mycobacterium tuberculosis, UniProt P9WK21); experiment: MtMetAP1a coupled enzyme assay; format: biochemical; details: for IC50: IC50 (µM), MtMetAP 1a, 200 nM enzyme; for Inhibition of MtMetAP1a (in words): both metalloforms (Co2+, Mn2+)
[2] = target: MtMetAP1c (Mycobacterium tuberculosis, UniProt P9WK19); experiment: MtMetAP1c coupled enzyme assay; format: biochemical; details: for IC50: IC50 (µM), MtMetAP 1c, 100 nM enzyme
Chain of MtMetAP1c (P9WK19 whole entry): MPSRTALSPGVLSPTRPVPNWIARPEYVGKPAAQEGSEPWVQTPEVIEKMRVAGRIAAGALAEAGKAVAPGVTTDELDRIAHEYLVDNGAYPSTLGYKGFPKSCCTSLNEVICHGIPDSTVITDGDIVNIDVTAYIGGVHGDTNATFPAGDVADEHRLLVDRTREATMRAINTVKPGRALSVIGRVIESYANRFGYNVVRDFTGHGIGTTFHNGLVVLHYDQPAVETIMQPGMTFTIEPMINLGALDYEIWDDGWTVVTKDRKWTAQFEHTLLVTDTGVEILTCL

[3] = Mn2+, Mn2+ cofactor (10 µM MnCl2)
[4] = Co2+, Co2+ cofactor (10 µM CoCl2)

Chain of MtMetAP1a (P9WK21 whole entry): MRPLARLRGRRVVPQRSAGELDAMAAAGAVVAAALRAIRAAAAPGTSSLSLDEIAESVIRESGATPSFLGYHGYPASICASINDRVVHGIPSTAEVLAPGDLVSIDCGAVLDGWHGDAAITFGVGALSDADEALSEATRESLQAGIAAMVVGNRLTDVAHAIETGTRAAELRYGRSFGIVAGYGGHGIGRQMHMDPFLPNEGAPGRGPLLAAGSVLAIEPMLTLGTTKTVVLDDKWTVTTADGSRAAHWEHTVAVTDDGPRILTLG

| SMILES | IC50 [1, 3] [µM] | IC50 [1, 4] [µM] | IC50 [2, 4] [µM] | IC50 [2, 3] [µM] | Inhibition of MtMetAP1c (in words) [2] | Inhibition of MtMetAP1a (in words) [1] |
| --- | --- | --- | --- | --- | --- | --- |
| COc1ccc2c(c1)-c1nc(NC=NO)sc1CC2 [4b, N'-hydroxy-N-(8-methoxy-4H,5H-naphtho[1,2-d]thiazol-2-yl)methanimidamide] | > 50 |  |  |  |  |  |
| COc1ccc2c(c1)CCc1sc(NC(C)=O)nc1-2 [3p, reference compound] | > 50 | > 50 | > 50 | > 50 |  |  |
| Nc1nc2c(s1)CCc1ccccc1-2 [3n, reference compound] | > 50 | > 50 | > 50 | > 50 |  |  |
| O/N=C\Nc1nc2c(s1)CCc1cc3c(cc1-2)OCO3 [4f] | > 20 |  |  |  |  |  |
| COc1ccc2c(c1)CCc1sc(NCc3ccco3)nc1-2 [3u, N-(Furan-2-ylmethyl)-7-methoxy-4H,5H-naphtho[1,2-d]thiazol-2-amine] | > 50 | > 50 | > 50 | > 50 |  |  |
| COc1ccc2c(c1)CCc1sc(/N=C/c3ccco3)nc1-2 [3t] | > 50 | > 50 | > 50 | > 50 |  |  |
| O/N=C\Nc1nc2c(s1)COc1cc3c(cc1-2)OCO3 [4h] | > 10 |  |  |  |  |  |
| CCCCCCCCC(=O)Nc1nc2c(s1)CCc1cc(OC)ccc1-2 [3r, reference compound] | > 50 | > 50 | > 50 | > 50 |  |  |
| O/N=C\Nc1nc2c(s1)CCCc1cc3c(cc1-2)OCO3 [4j] | > 50 |  |  |  |  |  |
| COc1ccc(-c2csc(N/C=N\O)n2)cc1OC [4m] | > 20 | > 20 |  |  | moderate potency |  |
| COc1ccc2c(c1)CCc1sc(NC(=O)[C@H](C)O)nc1-2 [3s, (S)-2-Hydroxy-N-(7-methoxy-4H,5H-naphtho[1,2-d]thiazol-2-yl)propanamide] | > 50 | > 50 | > 50 | > 50 |  |  |
| O/N=C\Nc1nc2c(s1)CCc1ccccc1-2 [4a] | > 50 |  |  | > 50 |  |  |
| COc1ccc2c(c1)CCc1sc(N/C=N\O)nc1-2 [4c, N'-hydroxy-N-(7-methoxy-4H,5H-naphtho[1,2-d]thiazol-2-yl)methanimidamide] | > 50 |  |  | > 50 |  |  |
| CCCCCCCCC(=O)Nc1nc2c(s1)CCc1ccccc1-2 [3q, reference compound] | > 50 | > 50 | > 50 | > 50 |  |  |
| COc1ccc2c(c1)Cc1sc(N/C=N\O)nc1-2 [4l] | > 50 | > 50 | > 50 | > 50 |  |  |
| COc1ccc2c(c1)OC(c1ccccc1)c1sc(N/C=N\O)nc1-2 (stereo not shown) [4i] |  |  | > 50 | > 50 | did not inhibit | moderate inhibition |
| COc1ccc2c(c1)CCc1sc(/N=C/c3ccccc3O)nc1-2 [3v] | > 50 | > 50 | > 50 | > 50 |  |  |
| COc1ccc2c(c1)CCc1sc(N)nc1-2 [3o, reference compound] | > 50 | > 50 | > 50 | > 50 |  |  |
| COc1ccc2c(c1)OCc1sc(N/C=N\O)nc1-2 [4g] |  |  | > 50 | > 50 | did not inhibit | moderate inhibition |
| COc1cc2c(cc1OC)-c1nc(N/C=N\O)sc1CC2 [4e] |  |  |  | > 50 |  |  |
| CN(C)/C=N/c1nc2c(s1)CCc1ccccc1-2 [3a] |  |  |  | > 50 |  |  |
